Results taken from ChEMBL document CHEMBL1144569 (Bioorg Med Chem, 2007).
The source made the active and inactive calls. The calls are words filed in the database; no cut-off is given here.

Experiments:
Cannabinoid receptor 2 [1] = target: T1, Cannabinoid receptor 2 (Homo sapiens, UniProt P34972); experiment: Antagonist activity at CB2 receptor expressed in HL60 cells assessed as abrogation of 2-archidonoylglycerol-induced increase in intracellular free calcium levels; format: functional, cell-based; conditions: HL-60
[2] = target: Cannabinoid receptor 1 (Homo sapiens) (UniProt P21554); experiment: Antagonist activity at CB1 receptor expressed in NG108-15 cells assessed as abrogation of 2-archidonoylglycerol-induced increase in intracellular free calcium levels; format: functional, cell-based
Cannabinoid receptor 2 [3] = target: T1, Cannabinoid receptor 2; experiment: Agonist activity at CB2 receptor expressed in HL60 cells assessed as increase in intracellular free calcium concentrations; format: functional, cell-based, HL-60

T1 sequence (P34972 whole entry): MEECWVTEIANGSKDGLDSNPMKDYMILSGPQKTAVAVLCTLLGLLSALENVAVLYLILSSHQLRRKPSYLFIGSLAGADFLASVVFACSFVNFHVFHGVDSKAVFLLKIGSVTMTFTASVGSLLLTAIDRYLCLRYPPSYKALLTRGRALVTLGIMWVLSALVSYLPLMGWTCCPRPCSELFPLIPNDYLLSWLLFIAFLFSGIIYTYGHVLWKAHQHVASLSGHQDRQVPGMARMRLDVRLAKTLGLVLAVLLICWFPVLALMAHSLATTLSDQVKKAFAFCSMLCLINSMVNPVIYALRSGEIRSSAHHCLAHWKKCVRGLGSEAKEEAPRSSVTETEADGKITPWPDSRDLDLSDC
Chain of Cannabinoid receptor 1 (Homo sapiens) (P21554 whole entry): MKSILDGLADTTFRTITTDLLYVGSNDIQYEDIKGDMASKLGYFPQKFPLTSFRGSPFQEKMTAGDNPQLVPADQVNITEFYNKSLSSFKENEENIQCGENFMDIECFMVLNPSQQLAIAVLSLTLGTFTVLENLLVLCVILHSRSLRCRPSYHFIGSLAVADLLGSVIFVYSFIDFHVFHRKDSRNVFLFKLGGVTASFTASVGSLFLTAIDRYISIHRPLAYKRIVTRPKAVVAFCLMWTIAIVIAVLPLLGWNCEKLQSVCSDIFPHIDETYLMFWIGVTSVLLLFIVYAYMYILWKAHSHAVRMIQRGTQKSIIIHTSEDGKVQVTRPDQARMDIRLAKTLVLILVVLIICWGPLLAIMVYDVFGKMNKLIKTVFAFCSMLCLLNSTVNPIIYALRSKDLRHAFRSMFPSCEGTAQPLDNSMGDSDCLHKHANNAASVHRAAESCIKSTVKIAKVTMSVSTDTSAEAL

For `CCCCC/C=C\C/C=C\C/C=C\C/C=C\CCCC(=O)OC(CO)CO` [2-ARACHIDONOYLGLYCEROL], the Activity (Cannabinoid receptor 2 [1]) was “Active”, the Activity [2] was “Active” and the EC50 (Cannabinoid receptor 2 [3]) was 17 nM.
